Assay results: patent publication US20240316155A1, “COMPOSITION FOR TREATING SHORT BOWEL SYNDROME” (ZEALAND PHARMA A/S, priority 2021, published 2024)
*1 amine or outer side, *2 acyl side, *3 side chain or, on linkers, in order; H or OH if unused. Side-chain parts run from the residue outwards. [ ]: non-standard residue; d: D form. The star is where a group is joined. C18 diacid = O=C(O)CCCCCCCCCCCCCCCCC(=O)*; γGlu = O=C(O)[C@H](CCC(=O)[*:2])N[*:1]; Aib = CC(C)(N)C(=O)O

Legend:
SBS patients = conditions: cited from earlier work
SBS mice = conditions: cited from earlier work
[1] = tested on: Short Bowel Syndrome (SBS) mice; assay: SBS mice (ICR): visual assessment of stool consistency with reference to Bristol Stool type; type: in vivo, C57BL/6J mice
From the text: (§1) Adult, male C57BL/6J mice with ˜30 g body weight of ˜4 months received a 12-cm ileum and cecum resection (ICR) with jejunocolonic anastomosis (see FIG. 1, middle). The mice were then randomly assigned to either Cpd 18 or vehicle treatment As control for the abdominal surgery, the sham group was included which had laparotomy, bowel exposure, transection and end-to-end anastomosis but no resection (see FIG. 1, bottom). To prevent intestinal obstruction, all mice were switched to liquid diet 2 days before surgery and maintained on this diet until the end of the experiment. Throughout the experiment, animals were singly housed. All mice were studied with the intention to survive to day 14.
Briefly, mice were anesthetized by i. p. injection of ketamine (100 mg/kg bw) and xylazine (15 mg/kg bw) and orally intubated and ventilated. After midline incision, the distal small bowel and the cecum were exposed and then transected 12 cm proximal to the ileocecal junction and immediately distal to the cecum. The resected bowel was removed, and the length of the specimen was measured. An end-to-end, jejunocolonic anastomosis was created and the abdomen was closed. In the sham group, laparotomy, bowel exposure, transection and end-to-end anastomosis but no resection was performed. […]

[2] = tested on: Short Bowel Syndrome (SBS) mice; assay: Short bowel syndrome (SBS) mice, ileum and cecum resection (ICR): postoperative survival, body weight, dietary intake; type: in vivo, C57BL/6J mice; conditions: ICR-resected mice
From the text: as §1
Briefly, mice were anesthetized by i. p. injection of ketamine (100 mg/kg bw) and xylazine (15 mg/kg bw) and orally intubated and ventilated. After midline incision, the distal small bowel and the cecum were exposed and then transected 12 cm proximal to the ileocecal junction and immediately distal to the cecum. The resected bowel was removed, and the length of the specimen was measured. An end-to-end, jejunocolonic anastomosis was created and the abdomen was closed. In the sham group, laparotomy, bowel exposure, transection and end-to-end anastomosis but no resection was performed. Immediately after surgery, all mice were weighed and received 1 ml isotonic saline subcutaneously and carprofen 5 mg/kg body weight. All surgical procedures were performed by the same surgeon. Mice were kept in a heated terrarium (29° C.) for 4 h and then returned to individual cages with free access to liquid food and water. The liquid diet was provided in feeding tubes. Mice were allowed to recover for a day after surgery, and then injected once daily with 30 nmol/kg body weight of Cpd 18. […]
Mice were scored for wellbeing daily as described (Berlin et al. 2019). If the wellness score dropped to below 4 pts, or when weight loss exceeded 20%, the mouse was immediately killed and not analyzed further. […]
Body weight (FIG. 6) and food consumption (FIG. 7) was measured daily. […]

[3] = tested on: Short Bowel Syndrome (SBS) mice; assay: SBS mice (ICR): stool water content; type: in vivo, C57BL/6J mice; conditions: ICR-resected mice
From the text: as §1
Briefly, mice were anesthetized by i. p. injection of ketamine (100 mg/kg bw) and xylazine (15 mg/kg bw) and orally intubated and ventilated. After midline incision, the distal small bowel and the cecum were exposed and then transected 12 cm proximal to the ileocecal junction and immediately distal to the cecum. The resected bowel was removed, and the length of the specimen was measured. An end-to-end, jejunocolonic anastomosis was created and the abdomen was closed. In the sham group, laparotomy, bowel exposure, transection and end-to-end anastomosis but no resection was performed. Immediately after surgery, all mice were weighed and received 1 ml isotonic saline subcutaneously and carprofen 5 mg/kg body weight. All surgical procedures were performed by the same surgeon. Mice were kept in a heated terrarium (29° C.) for 4 h and then returned to individual cages with free access to liquid food and water. The liquid diet was provided in feeding tubes. Mice were allowed to recover for a day after surgery, and then injected once daily with 30 nmol/kg body weight of Cpd 18. 50 mM Histidine buffer pH 6, 200 mM Mannitol served as vehicle control.
Stools were collected on selected days throughout the experiment. Stool water content was assessed by collecting stools in a pre-weighed tube, weighing, and then drying overnight at 80° C. and reweighing the dried stools. […]

Compound | effect on diarrhea (SBS patients) | effect on treatment of diarrhea (SBS mice) | stool consistency, Bristol Stool type ([1]; day 5 after resection, vehicle Type 6 or 7, sham Type 3 or 4) | stool consistency, Bristol Stool type ([1]; day 14, vehicle Type 6 or 7) | survival rate after 14 days ([2]; 30 nmol/kg once daily from day 1 after surgery, vehicle 60%, sham 90%) [%] | postoperative relative body weight (relative to initial weight) ([2]; 30 nmol/kg once daily, compared to vehicle, up to day 14) | postoperative dietary intake ([2]; 30 nmol/kg once daily, from day 2 onwards, compared to vehicle) | stool water content ([3]; 30 nmol/kg once daily, day 14, vehicle approximately 75%, sham 50%) | stool water content compared to vehicle ([3]; 30 nmol/kg once daily, from day 7) | stool water content ([3]; after 2 days)
CC[C@H](C)[C@H](NC(=O)[C@H](Cc1ccccc1)NC(=O)[C@H](CC(=O)O)NC(=O)[C@H](CCCNC(=N)N)NC(=O)[C@H](C)NC(=O)[C@H](C)NC(=O)[C@H](CC(C)C)NC(=O)[C@H](CC(N)=O)NC(=O)[C@H](CC(=O)O)NC(=O)[C@H](CC(C)C)NC(=O)[C@@H](NC(=O)[C@@H](NC(=O)[C@H](CC(N)=O)NC(=O)[C@H](CCSC)NC(=O)[C@H](CCC(=O)O)NC(=O)[C@H](CC(=O)O)NC(=O)[C@H](CO)NC(=O)[C@H](Cc1ccccc1)NC(=O)[C@H](CO)NC(=O)CNC(=O)[C@H](CC(=O)O)NC(=O)CNC(=O)[C@@H](N)Cc1c[nH]cn1)[C@@H](C)O)[C@@H](C)CC)C(=O)N[C@@H](CC(N)=O)C(=O)N[C@@H](Cc1c[nH]c2ccccc12)C(=O)N[C@@H](CC(C)C)C(=O)N[C@H](C(=O)N[C@@H](CCC(N)=O)C(=O)N[C@H](C(=O)N[C@@H](CCCCN)C(=O)N[C@H](C(=O)N[C@H](C(=O)N[C@@H](CC(=O)O)C(=O)O)[C@@H](C)O)[C@@H](C)CC)[C@@H](C)O)[C@@H](C)CC [Teduglutide, [Gly2]-hGLP-2 (1-33)] | some effect | intermittent effect | – | – | – | – | – | – | – | –
H-H[Aib]EGSFTSELATILDK([γGlu-C18 diacid])QAARDFIAWLIQHKITD-OH [Cpd 18] | – | – | Type 4 or 5 | type 4 | 74 | differed from the vehicle group after six days onwards by starting to increase towards the initial weight | lower | approximately 50% | significantly reduced compared to vehicle | approximately 75%
